Test [1] deals with T1, WDR5 (Homo sapiens (Human), UniProt P61964). Put plainly: TR-FRET binding assay, displacement of 10mer-Thr-FAM probe from His-tagged WDR5. As to conditions: Inhibition of WDR5 by TR-FRET assay. The method, then: The LanthaScreenTM Elite Tb-anti-HIS Antibody from ThermoFisher Scientific was used for this purpose. […] The ratio of the 520 and 495 signals are then utilized to generate a dose-response curve to calculate an IC50 value. […] WDR[…] tag protein is used at 2 nM.
Background: In TR-FRET formats the signal depends on donor and acceptor labels being close together.

Test [2] has as its system MV4:11 cells. Put plainly: Cellular viability / anti-proliferative activity, CellTiter-Glo, 7 day protocol. The test is classed as cell-based, human. As to conditions: 168 h. On the procedure:
Anti proliferative activity using MLL-harboring cell lines. MV4:11 cells are grown in RPMI-1640 media supplemented with 10% FBS and 1% penicillin/streptomycin. Viability assays are performed by dispensing […] into each well of an opaque 384-well plate and adding compounds at the indicated concentrations in a final volume of 32 μL and a final concentration of DMSO of 0.1% for all samples. After a set incubation period, 7 day protocol, the viability of cells in each well is assessed using the CellTiter-Glo assay (Promega), read on a GloMax 96 Microplane Luminometer (Promega). Serial dilutions of each cell type are included in all assays to generate standard curves and determine assay measurements are taken within the dynamic range of the instrument. GI50 values are calculated based on three biological replicates, each with three technical replicates. Data are expressed as mean plus/minus S.E.M.

Test [3] addresses T1, WDR5. Put plainly: Fluorescence polarization anisotropy (FPA) competition assay, displacement of FITC-MLL or 10mer-Thr-FAM peptide. The test is classed as binding. As to conditions: Table B2, WDR5 WIN-site binding affinity; values not less than 1 nM (FPA). An excerpt: The assay is run in 384-well format and is read on a BioTek Cytation. […] Replicate values are fit to a 4-parameter fit in XLFit to generate a single IC50 value for each compound that is then converted to a Ki value. Experiments are repeated to generate a 2nd, independent Ki value; values from the two experiments are averaged to produce the reported Ki value for the compound.
On the technique in general: Polarisation of emitted light reports the rotation of a fluorescent probe.

[4] abbreviates: cellular proliferation of MV4:11 human cancer cell lines, 7 day.
The mark [5] stands for this setting: Homo sapiens, MV4:11 leukemia cells after a 7 day incubation period.

In test [1], `COc1cc(OC)cc(C(C)NC(=O)c2cc(CNC3=NCCC3)cc(-c3ccc(F)nc3C)c2)c1` (centres unmarked) [Example 55, 3-(((3,4-Dihydro-2H-pyrrol-5-yl)amino)methyl)-N-(1-(3,5-dimethoxyphenyl)ethyl)-5-(6-fluoro-2-methylpyridin-3-yl)benzamide] showed a Ki of 11 nM. Moreover, it took 440 nM to inhibit growth in test [2] (setting [4]) by half (GI50).

Compound `COc1ccnc(CNC(=O)c2cc(CNC3=NCCC3)cc(-c3ccc(F)nc3C)c2)c1` [Example 53, 3-(((3,4-Dihydro-2H-pyrrol-5-yl)amino)methyl)-5-(6-fluoro-2-methylpyridin-3-yl)-N-((4-methoxypyridin-2-yl)methyl)benzamide] registered a Ki in test [1] of 0.53 nM. Besides, the 50% growth inhibitory concentration (GI50) in test [2] (setting [4]) turned out to be 630 nM.

`O=C(NCc1ccc(Cl)c(Cl)c1)c1ccc(F)c(CNC2=NCCN2)c1` [Example B6] displayed a GI50 in test [2] (setting [5]) of 3280 nM. The compound further came in with a Ki in test [3] of 4.01 nM.

The compound `COc1cc(CN(C)C(=O)c2cc(CNC3=NCCC3)cc(-c3ccc(F)nc3C)c2)cc(OC)c1` [Example 56, 3-(((3,4-Dihydro-2H-pyrrol-5-yl)amino)methyl)-N-(3,5-dimethoxybenzyl)-5-(6-fluoro-2-methylpyridin-3-yl)-N-methylbenzamide] gave an inhibitory constant (Ki) in test [1] of 20 nM. The compound also displayed a GI50 in test [2] (setting [4]) of 6400 nM.

For `CNc1c(C(=O)N(C)Cc2cc(OC)cc(OC)c2)cc(CNC2=NCCC2)cc1-c1ccc(F)cc1C` [Example 170, 5-(((3,4-dihydro-2H-pyrrol-5-yl)amino)methyl)-N-(3,5-dimethoxybenzyl)-4′-fluoro-N,2′-dimethyl-2-(methylamino)-[1,1′-biphenyl]-3-carboxamide], in test [1], the Ki turned out to be 19 nM. Besides, growth in test [2] (setting [4]) was halved (GI50) at 4700 nM.

As for `Cc1cc(CNC(=O)c2cc(CNC3=NCCN3)cc(-c3ccc(F)nc3C)n2)ccc1Cl` [Example 74, N-(4-Chloro-3-methylbenzyl)-4-(((4,5-dihydro-1H-imidazol-2-yl)amino)methyl)-6′-fluoro-2′-methyl-[2,3′-bipyridine]-6-carboxamide], in test [1], affinity was put at a Ki of 0.46 nM. The compound further registered a GI50 in test [2] (setting [4]) of 680 nM.

`CCn1cc(-c2cc(CNC(=N)C3CCC3)cc(C(=O)N[C@H](c3ccc(F)c(C)c3)C3CC3)c2)c(C(F)(F)F)n1` [Example 106, (S)-3-(Cyclobutanecarboximidamidomethyl)-N-(cyclopropyl(4-fluoro-3-methylphenyl)methyl)-5-(1-ethyl-3-(trifluoromethyl)-1H-pyrazol-4-yl)benzamide] had a Ki in test [1] of under 0.1 nM. The compound also displayed a GI50 in test [2] (setting [4]) of 30 nM.

`Cc1cc(CNC(=O)c2cc(CNC3=NCCC3)cc(-c3cccc(CO)c3)c2)ccc1Cl` [Example 63, N-(4-Chloro-3-methylbenzyl)-5-(((3,4-dihydro-2H-pyrrol-5-yl)amino)methyl)-3′-(hydroxymethyl)-[1,1′-biphenyl]-3-carboxamide] returned an inhibition constant Ki in test [1] of 0.88 nM. For the same compound, the GI50 in test [2] (setting [4]) is 1900 nM.

`COc1cc(CNC(=O)c2cccc(CNC3=NCCN3)c2F)cc(OC)c1` [Example B21]: in test [2] (setting [5]), the GI50 is over 30000 nM. Moreover, in test [3], the inhibition constant (Ki) turned out to be 17.8 nM.

On to `CNc1c(C(=O)N(C)Cc2cc(OC)cc(OC)c2)cc(CNC2=NCCN2)cc1-c1ccc(F)cc1C` [Example 171, 5-(((4,5-Dihydro-1H-imidazol-2-yl)amino)methyl)-N-(3,5-dimethoxybenzyl)-4′-fluoro-N,2′-dimethyl-2-(methylamino)-[1,1′-biphenyl]-3-carboxamide], for which, in test [1], the inhibitory constant (Ki) was found to be 19 nM. Besides, in test [2] (setting [4]), growth was halved (GI50) at 3800 nM.

A word on the Ki: it is a measure of affinity in units of concentration, obtained from inhibition or displacement. High values mean a looser hold on the target, low ones a stronger hold on the target. One may read the GI50 as the concentration at which growth is held to half of that of the control. Lower therefore signals more potent growth inhibition.

Values taken from patent publication US10807959B2, “WDR5-MLL1 inhibitors and modulators” (Vanderbilt University, priority 2018, dated 2020).
